Test results from patent US20060069132A1, “Azolecarboxamide herbicides” (priority 2004, published 2006).

What was measured:
wild oat = assay: Test B postemergence herbicide test; assay type: in vivo, Avena fatua; conditions: postemergence
Procedure, shortened: (§1)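 Greenhouse test; postemergence application to plants at 1–4 leaves (2–18 cm); paddy species at 2 leaves; evaluated visually vs controls at 13–15 days; scale 0–100 (100 = complete control).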

barnyardgrass [1] = assay: Test B pre-/postemergence herbicide test; assay type: in vivo, Echinochloa crus-galli; conditions: for Barnyardgrass plant response rating (0 to 100 scale) / Plant response rating, Barnyardgrass: 0 = no effect, 100 = complete control, preemergence; for Barnyardgrass plant response rating: postemergence
Procedure, shortened: (§2)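 Formulation: non-phytotoxic solvent mix with surfactant. Timing: preemergence on seed and postemergence on 2–18 cm plants, applied concurrently. Readout after 13–15 d greenhouse: visual 0–100 control rating against controls.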

blackgrass = assay: Test B postemergence herbicide test; assay type: in vivo, Alopecurus myosuroides; conditions: postemergence
Procedure, shortened: (§3)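 Scale 0–100: zero equals no visible effect, 100 complete control, judged by eye relative to controls. Timing: 13 to 15 days in greenhouse post-treatment. Growth stage at spraying: two leaves (paddy) or one to four leaves, 2–18 cm (postemergence).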

morningglory = assay: Test B pre-/postemergence herbicide test; assay type: in vivo, Ipomoea coccinea; conditions: for Morningglory plant response rating (0 to 100 scale) / Plant response rating, Morningglory: 0 = no effect, 100 = complete control, preemergence; for Morningglory plant response rating: postemergence
Procedure, shortened: as §2

rice = assay: Test B flooded paddy test; assay type: in vivo, Oryza sativa; conditions: 1000 g ai/ha, scale 0 to 100 (0 no effect, 100 complete control)
Procedure, shortened: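 Postemergence plants were sprayed with formulated test chemicals at 2 to 18 cm height (1- to 4-leaf stage); paddy species were grown to the 2-leaf stage. After 13 to 15 days in a greenhouse, injury was rated visually against untreated controls on a 0–100 scale (0 = no effect, 100 = complete control).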

barnyardgrass [2] = assay: Test B flooded paddy test; assay type: in vivo, Echinochloa crus-galli; conditions: 1000 g ai/ha, scale 0 to 100 (0 no effect, 100 complete control)
Procedure, shortened: as §3

wheat = assay: Test B postemergence herbicide test; assay type: in vivo, Triticum aestivum; set-up: key to Wheat plant response rating: 0 = no effect, 100 = complete control; conditions: postemergence
Procedure, shortened: as §1

lambsquarters = assay: Test B pre-/postemergence herbicide test; assay type: in vivo, Chenopodium album; conditions: for Lambsquarters plant response rating (0 to 100 scale) / Plant response rating, Lambsquarters: 0 = no effect, 100 = complete control, preemergence; for Lambsquarters plant response rating: postemergence
Procedure, shortened: (§4)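 Response was scored visually 13 to 15 days after treatment against untreated greenhouse controls, 0 meaning no effect and 100 complete control. Formulations (solvent mixture plus surfactant) went onto soil after planting, onto foliage of 1- to 4-leaf plants, and onto 2-leaf plants in a flooded paddy set including rice and barnyardgrass.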

[3] = test system: small flower umbrella sedge; assay: Test B flooded paddy test; assay type: in vivo, Cyperus difformis; conditions: 1000 g ai/ha, scale 0 to 100 (0 no effect, 100 complete control)
Procedure, shortened: as §3

large crabgrass = assay: Test B pre-/postemergence herbicide test; assay type: in vivo, Digitaria sanguinalis; conditions: for Crabgrass, Large plant response rating (0 to 100 scale) / Plant response rating, Crabgrass, Large: 0 = no effect, 100 = complete control, preemergence; for Crabgrass, Large plant response rating: postemergence
Procedure, shortened: as §4

pigweed = assay: Test B pre-/postemergence herbicide test; assay type: in vivo, Amaranthus retroflexus; conditions: for Pigweed plant response rating (0 to 100 scale) / Plant response rating, Pigweed: 0 = no effect, 100 = complete control, preemergence; for Pigweed plant response rating: postemergence
Procedure, shortened: as §4

ducksalad = assay: Test B flooded paddy test; assay type: in vivo, Heteranthera limosa; conditions: 1000 g ai/ha, scale 0 to 100 (0 no effect, 100 complete control)
Procedure, shortened: as §3

cocklebur = assay: Test B pre-/postemergence herbicide test; assay type: in vivo, Xanthium strumarium; conditions: for Cocklebur plant response rating (0 to 100 scale) / Plant response rating, Cocklebur: 0 = no effect, 100 = complete control, preemergence; for Cocklebur plant response rating: postemergence
Procedure, shortened: as §2

Surinam grass = assay: Test B pre-/postemergence herbicide test; assay type: in vivo, Urochloa decumbens; conditions: for Surinam Grass plant response rating (0 to 100 scale) / Plant response rating, Surinam Grass: 0 = no effect, 100 = complete control, preemergence; for Surinam Grass plant response rating: postemergence
Procedure, shortened: as §4

giant foxtail = assay: Test B pre-/postemergence herbicide test; assay type: in vivo, Setaria faberi; conditions: for Foxtail, Giant plant response rating (0 to 100 scale) / Plant response rating, Foxtail, Giant: 0 = no effect, 100 = complete control, preemergence; for Foxtail, Giant plant response rating: postemergence
Procedure, shortened: as §4

corn = assay: Test B pre-/postemergence herbicide test; assay type: in vivo, Zea mays; conditions: for Corn plant response rating (0 to 100 scale) / Plant response rating, Corn: 0 = no effect, 100 = complete control, preemergence; for Corn plant response rating: postemergence
Procedure, shortened: as §4

[4] = 125 g ai/ha, visual rating, scale 0 (no effect) to 100 (complete control)
[5] = 500 g ai/ha, scale 0 to 100, 0 is no effect, 100 is complete control

CCn1nc(C(C)(C)C)cc1C(=S)Nc1cc(C(=S)N(C)C)ccc1F [Compound 305]
Oat, Wild plant response rating (wild oat; [4]): 10
Oat, Wild plant response rating (wild oat; [5]): 30
Barnyardgrass plant response rating (0 to 100 scale) (barnyardgrass [1]; 125 g ai/ha): 80
Barnyardgrass plant response rating (barnyardgrass [1]; [4]): 0
Plant response rating, Barnyardgrass (barnyardgrass [1]; 500 g ai/ha, visual rating): 90
Barnyardgrass plant response rating (barnyardgrass [1]; [5]): 0
Blackgrass plant response rating (blackgrass; [4]): 20
Blackgrass plant response rating (blackgrass; [5]): 30
Morningglory plant response rating (0 to 100 scale) (morningglory; 125 g ai/ha): 0
Morningglory plant response rating (morningglory; [4]): 0
Plant response rating, Morningglory (morningglory; 500 g ai/ha, visual rating): 0
Morningglory plant response rating (morningglory; [5]): 0
Rice plant response rating (rice): 70
Barnyardgrass plant response rating (barnyardgrass [2]): 90
Wheat plant response rating (wheat; [4]): 0
Wheat plant response rating (wheat; [5]): 10
Lambsquarters plant response rating (0 to 100 scale) (lambsquarters; 125 g ai/ha): 100
Lambsquarters plant response rating (lambsquarters; [4]): 50
Plant response rating, Lambsquarters (lambsquarters; 500 g ai/ha, visual rating): 100
Lambsquarters plant response rating (lambsquarters; [5]): 80
Sedge, Umbrella plant response rating [3]: 90
Crabgrass, Large plant response rating (0 to 100 scale) (large crabgrass; 125 g ai/ha): 90
Crabgrass, Large plant response rating (large crabgrass; [4]): 0
Plant response rating, Crabgrass, Large (large crabgrass; 500 g ai/ha, visual rating): 100
Crabgrass, Large plant response rating (large crabgrass; [5]): 0
Pigweed plant response rating (0 to 100 scale) (pigweed; 125 g ai/ha): 100
Pigweed plant response rating (pigweed; [4]): 0
Plant response rating, Pigweed (pigweed; 500 g ai/ha, visual rating): 100
Pigweed plant response rating (pigweed; [5]): 70
Ducksalad plant response rating (ducksalad): 80
Cocklebur plant response rating (0 to 100 scale) (cocklebur; 125 g ai/ha): 50
Cocklebur plant response rating (cocklebur; [4]): 10
Plant response rating, Cocklebur (cocklebur; 500 g ai/ha, visual rating): 70
Cocklebur plant response rating (cocklebur; [5]): 10
Surinam Grass plant response rating (0 to 100 scale) (Surinam grass; 125 g ai/ha): 80
Surinam Grass plant response rating (Surinam grass; [4]): 0
Plant response rating, Surinam Grass (Surinam grass; 500 g ai/ha, visual rating): 100
Surinam Grass plant response rating (Surinam grass; [5]): 20
Foxtail, Giant plant response rating (0 to 100 scale) (giant foxtail; 125 g ai/ha): 80
Foxtail, Giant plant response rating (giant foxtail; [4]): 20
Plant response rating, Foxtail, Giant (giant foxtail; 500 g ai/ha, visual rating): 100
Foxtail, Giant plant response rating (giant foxtail; [5]): 20
Corn plant response rating (0 to 100 scale) (corn; 125 g ai/ha): 10
Corn plant response rating (corn; [4]): 70
Plant response rating, Corn (corn; 500 g ai/ha, visual rating): 60
Corn plant response rating (corn; [5]): 70

CCNC(=O)c1cccc(NC(=O)c2cc(C3(C)CC3)nn2CC)c1 [Compound 306]
Oat, Wild plant response rating (wild oat; [4]): 20
Oat, Wild plant response rating (wild oat; [5]): 30
Barnyardgrass plant response rating (0 to 100 scale) (barnyardgrass [1]; 125 g ai/ha): 60
Barnyardgrass plant response rating (barnyardgrass [1]; [4]): 10
Plant response rating, Barnyardgrass (barnyardgrass [1]; 500 g ai/ha, visual rating): 90
Barnyardgrass plant response rating (barnyardgrass [1]; [5]): 10
Blackgrass plant response rating (blackgrass; [4]): 10
Blackgrass plant response rating (blackgrass; [5]): 30
Morningglory plant response rating (0 to 100 scale) (morningglory; 125 g ai/ha): 10
Plant response rating, Morningglory (morningglory; 500 g ai/ha, visual rating): 10
Morningglory plant response rating (morningglory; [5]): 70
Rice plant response rating (rice): 60
Barnyardgrass plant response rating (barnyardgrass [2]): 80
Wheat plant response rating (wheat; [4]): 10
Wheat plant response rating (wheat; [5]): 20
Lambsquarters plant response rating (0 to 100 scale) (lambsquarters; 125 g ai/ha): 100
Lambsquarters plant response rating (lambsquarters; [4]): 70
Plant response rating, Lambsquarters (lambsquarters; 500 g ai/ha, visual rating): 100
Lambsquarters plant response rating (lambsquarters; [5]): 80
Sedge, Umbrella plant response rating [3]: 80
Crabgrass, Large plant response rating (0 to 100 scale) (large crabgrass; 125 g ai/ha): 100
Crabgrass, Large plant response rating (large crabgrass; [4]): 10
Plant response rating, Crabgrass, Large (large crabgrass; 500 g ai/ha, visual rating): 100
Crabgrass, Large plant response rating (large crabgrass; [5]): 50
Pigweed plant response rating (0 to 100 scale) (pigweed; 125 g ai/ha): 100
Pigweed plant response rating (pigweed; [4]): 70
Plant response rating, Pigweed (pigweed; 500 g ai/ha, visual rating): 100
Pigweed plant response rating (pigweed; [5]): 100
Ducksalad plant response rating (ducksalad): 80
Cocklebur plant response rating (0 to 100 scale) (cocklebur; 125 g ai/ha): 0
Cocklebur plant response rating (cocklebur; [4]): 30
Plant response rating, Cocklebur (cocklebur; 500 g ai/ha, visual rating): 50
Cocklebur plant response rating (cocklebur; [5]): 70
Surinam Grass plant response rating (0 to 100 scale) (Surinam grass; 125 g ai/ha): 30
Surinam Grass plant response rating (Surinam grass; [4]): 10
Plant response rating, Surinam Grass (Surinam grass; 500 g ai/ha, visual rating): 90
Surinam Grass plant response rating (Surinam grass; [5]): 30
Foxtail, Giant plant response rating (0 to 100 scale) (giant foxtail; 125 g ai/ha): 40
Foxtail, Giant plant response rating (giant foxtail; [4]): 10
Plant response rating, Foxtail, Giant (giant foxtail; 500 g ai/ha, visual rating): 100
Foxtail, Giant plant response rating (giant foxtail; [5]): 40
Corn plant response rating (0 to 100 scale) (corn; 125 g ai/ha): 70
Corn plant response rating (corn; [4]): 30
Plant response rating, Corn (corn; 500 g ai/ha, visual rating): 100
Corn plant response rating (corn; [5]): 30

CCOC(=O)c1cccc(NC(=O)c2cc(C(C)(C)C)nn2C)n1 [Compound 313]
Oat, Wild plant response rating (wild oat; [4]): 20
Oat, Wild plant response rating (wild oat; [5]): 30
Barnyardgrass plant response rating (0 to 100 scale) (barnyardgrass [1]; 125 g ai/ha): 80
Barnyardgrass plant response rating (barnyardgrass [1]; [4]): 30
Plant response rating, Barnyardgrass (barnyardgrass [1]; 500 g ai/ha, visual rating): 90
Barnyardgrass plant response rating (barnyardgrass [1]; [5]): 50
Blackgrass plant response rating (blackgrass; [4]): 0
Blackgrass plant response rating (blackgrass; [5]): 10
Morningglory plant response rating (0 to 100 scale) (morningglory; 125 g ai/ha): 10
Morningglory plant response rating (morningglory; [4]): 0
Plant response rating, Morningglory (morningglory; 500 g ai/ha, visual rating): 40
Morningglory plant response rating (morningglory; [5]): 80
Rice plant response rating (rice): 80
Barnyardgrass plant response rating (barnyardgrass [2]): 70
Wheat plant response rating (wheat; [4]): 0
Wheat plant response rating (wheat; [5]): 10
Lambsquarters plant response rating (0 to 100 scale) (lambsquarters; 125 g ai/ha): 100
Lambsquarters plant response rating (lambsquarters; [4]): 60
Plant response rating, Lambsquarters (lambsquarters; 500 g ai/ha, visual rating): 100
Lambsquarters plant response rating (lambsquarters; [5]): 90
Sedge, Umbrella plant response rating [3]: 80
Crabgrass, Large plant response rating (0 to 100 scale) (large crabgrass; 125 g ai/ha): 30
Crabgrass, Large plant response rating (large crabgrass; [4]): 10
Plant response rating, Crabgrass, Large (large crabgrass; 500 g ai/ha, visual rating): 90
Crabgrass, Large plant response rating (large crabgrass; [5]): 20
Pigweed plant response rating (0 to 100 scale) (pigweed; 125 g ai/ha): 100
Pigweed plant response rating (pigweed; [4]): 60
Plant response rating, Pigweed (pigweed; 500 g ai/ha, visual rating): 100
Pigweed plant response rating (pigweed; [5]): 70
Ducksalad plant response rating (ducksalad): 80
Cocklebur plant response rating (0 to 100 scale) (cocklebur; 125 g ai/ha): 0
Cocklebur plant response rating (cocklebur; [4]): 0
Plant response rating, Cocklebur (cocklebur; 500 g ai/ha, visual rating): 10
Cocklebur plant response rating (cocklebur; [5]): 90
Surinam Grass plant response rating (0 to 100 scale) (Surinam grass; 125 g ai/ha): 30
Surinam Grass plant response rating (Surinam grass; [4]): 10
Plant response rating, Surinam Grass (Surinam grass; 500 g ai/ha, visual rating): 80
Surinam Grass plant response rating (Surinam grass; [5]): 20
Foxtail, Giant plant response rating (0 to 100 scale) (giant foxtail; 125 g ai/ha): 40
Foxtail, Giant plant response rating (giant foxtail; [4]): 20
Plant response rating, Foxtail, Giant (giant foxtail; 500 g ai/ha, visual rating): 100
Foxtail, Giant plant response rating (giant foxtail; [5]): 50
Corn plant response rating (0 to 100 scale) (corn; 125 g ai/ha): 10
Corn plant response rating (corn; [4]): 10
Plant response rating, Corn (corn; 500 g ai/ha, visual rating): 30
Corn plant response rating (corn; [5]): 20
